Target: human ACC2 (Homo sapiens (Human), UniProt O00763)
Assay: ACC2 assay, spectrophotometric 384 well assay (NADH-linked, coupled lactate dehydrogenase/pyruvate kinase reaction)
Type: biochemical
Conditions: hACC2 construct lacking the 128 N-terminal amino acids; 25° C., 340 nm, 15 minutes
Experimental: Spectrophotometric 384 Well Assay
Malonyl CoA formation by acetyl CoA carboxylases is stoichometrically linked to the consumption of ATP. ACC2 activity is measured in a NADH-linked kinetic method measuring ADP generated during the ACC reaction using a coupled lactate dehydrogenase/pyruvate kinase reaction.
For biological testing, a human ACC2 construct which lacks the 128 amino acids at the N-terminus for increased solubility (nt 385-6966 in Genbank entry AJ575592) is cloned. The protein is then expressed in insect cells using a baculoviral expression system. Protein purification is performed by anion exchange.
All compounds are dissolved in dimethyl sulfoxide (DMSO) to a concentration of 10 mM.
Assay reactions are then carried out in 384-well plates, with hACC2 in an appropriate dilution and at final assay concentrations (f.c.) of 100 mM Tris (pH 7.5), 10 mM trisodium citrate, 25 mM KHCC3, 10 mM MgCl2, 0.5 mg/ml BSA, 3.75 mM reduced L-glutathione, 15 U/ml lactate dehydrogenase, 0.5 mM phosphoenolpyruvate, 15 U/ml pyruvate kinase, compounds at different concentrations at final DMSO concentrations of 1%.
The enzymatic reaction is then started by addition of a mixture of NADH, acetyl Coenzyme A (both 200 μM f.c.) and ATP (500 uM f.c.). The decrease of the optical density (slope S) is then determined at 25° C. at a wavelength of 340 nm over 15 minutes in a spectrophotometric reader.
Each assay microtiter plate contains wells with vehicle instead of compound as controls for the non-inhibited enzyme (100% CTL; ‘HIGH’) and wells without acetyl-CoA as controls for non-specific NADH degradation (0% CTL; ‘LOW’).
The slope S is used for calculation of % CTL=(S(compound)−S(‘LOW’))/(S(‘HIGH’)−S(‘LOW’))*100. Compounds will give values between 100% CTL (no inhibition) and 0% CTL (complete inhibition).
For IC50 value determination, the sample slope in the presence of the test compound after subtraction of the low controls (S(compound)−S(‘LOW’)) are used.
An IC50 value is derived from the compound slopes at different dosages after subtraction of the low controls (S(compound)−S(‘LOW’)) by non-linear regression curve fitting (equation y=(A+((B−A)/(1+((C/x)^D))))).
In the following table the activity expressed as IC50 (μM) of compounds according to the invention is presented wherein the IC50 values are determined in the ACC2 assay as described hereinbefore. The term “Ex.” refers to the example numbers according to the following experimental section.

Chain of human ACC2 (O00763 129-2458): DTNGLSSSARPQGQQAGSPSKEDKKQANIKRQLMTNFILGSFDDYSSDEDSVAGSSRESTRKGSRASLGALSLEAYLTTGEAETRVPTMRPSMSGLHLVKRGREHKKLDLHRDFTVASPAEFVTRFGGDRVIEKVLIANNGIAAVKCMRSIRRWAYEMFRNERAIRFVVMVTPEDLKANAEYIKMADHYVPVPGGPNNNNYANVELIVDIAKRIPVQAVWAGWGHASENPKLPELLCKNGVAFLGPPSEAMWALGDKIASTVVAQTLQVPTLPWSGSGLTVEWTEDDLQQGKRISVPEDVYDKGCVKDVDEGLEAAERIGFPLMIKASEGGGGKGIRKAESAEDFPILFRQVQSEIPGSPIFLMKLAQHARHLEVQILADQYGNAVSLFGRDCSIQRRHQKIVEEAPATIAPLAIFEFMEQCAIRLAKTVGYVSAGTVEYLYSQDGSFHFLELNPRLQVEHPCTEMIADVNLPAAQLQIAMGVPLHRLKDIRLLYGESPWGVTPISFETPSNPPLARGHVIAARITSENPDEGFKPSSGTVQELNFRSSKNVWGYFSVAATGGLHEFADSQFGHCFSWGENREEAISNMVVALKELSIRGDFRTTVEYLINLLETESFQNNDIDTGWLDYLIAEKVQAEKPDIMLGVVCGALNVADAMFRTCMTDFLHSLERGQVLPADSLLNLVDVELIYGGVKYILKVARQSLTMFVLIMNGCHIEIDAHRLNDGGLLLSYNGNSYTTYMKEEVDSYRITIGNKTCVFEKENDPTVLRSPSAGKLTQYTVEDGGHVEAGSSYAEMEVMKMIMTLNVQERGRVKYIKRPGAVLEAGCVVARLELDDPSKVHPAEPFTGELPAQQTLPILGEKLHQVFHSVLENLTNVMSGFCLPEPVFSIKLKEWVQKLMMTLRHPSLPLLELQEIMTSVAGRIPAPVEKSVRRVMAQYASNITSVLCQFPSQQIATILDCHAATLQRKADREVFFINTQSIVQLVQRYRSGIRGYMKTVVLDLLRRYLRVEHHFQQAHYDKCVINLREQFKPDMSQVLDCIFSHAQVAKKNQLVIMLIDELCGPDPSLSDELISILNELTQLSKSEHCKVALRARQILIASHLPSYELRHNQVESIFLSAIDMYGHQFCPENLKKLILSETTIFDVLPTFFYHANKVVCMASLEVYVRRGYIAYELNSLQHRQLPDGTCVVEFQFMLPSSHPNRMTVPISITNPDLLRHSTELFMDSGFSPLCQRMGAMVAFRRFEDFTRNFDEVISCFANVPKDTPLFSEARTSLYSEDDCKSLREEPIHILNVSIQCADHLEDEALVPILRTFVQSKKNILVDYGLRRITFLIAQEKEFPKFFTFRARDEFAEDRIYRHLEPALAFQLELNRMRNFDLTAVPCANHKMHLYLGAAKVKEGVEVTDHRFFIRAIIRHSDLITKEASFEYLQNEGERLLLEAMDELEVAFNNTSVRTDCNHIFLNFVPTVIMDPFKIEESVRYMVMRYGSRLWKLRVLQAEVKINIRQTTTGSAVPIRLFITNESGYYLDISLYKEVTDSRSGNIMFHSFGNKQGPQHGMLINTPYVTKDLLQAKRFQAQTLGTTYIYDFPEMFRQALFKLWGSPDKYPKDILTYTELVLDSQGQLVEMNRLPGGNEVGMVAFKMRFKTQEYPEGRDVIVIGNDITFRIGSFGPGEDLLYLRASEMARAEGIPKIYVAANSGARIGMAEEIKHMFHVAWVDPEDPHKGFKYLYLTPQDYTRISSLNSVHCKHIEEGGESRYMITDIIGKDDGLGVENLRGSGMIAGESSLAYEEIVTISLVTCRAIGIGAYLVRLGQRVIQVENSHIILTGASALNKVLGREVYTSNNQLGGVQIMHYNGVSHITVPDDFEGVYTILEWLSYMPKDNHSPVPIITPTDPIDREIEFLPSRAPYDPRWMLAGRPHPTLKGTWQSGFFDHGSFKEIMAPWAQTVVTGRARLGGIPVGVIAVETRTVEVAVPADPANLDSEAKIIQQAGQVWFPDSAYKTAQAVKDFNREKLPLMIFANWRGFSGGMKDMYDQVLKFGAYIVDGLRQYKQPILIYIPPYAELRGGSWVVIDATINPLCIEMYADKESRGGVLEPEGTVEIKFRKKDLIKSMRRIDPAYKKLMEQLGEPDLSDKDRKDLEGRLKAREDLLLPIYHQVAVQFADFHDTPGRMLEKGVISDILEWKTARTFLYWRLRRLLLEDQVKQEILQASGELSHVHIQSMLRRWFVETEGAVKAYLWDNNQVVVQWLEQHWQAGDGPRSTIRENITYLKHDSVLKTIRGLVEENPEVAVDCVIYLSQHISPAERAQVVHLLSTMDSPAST

Row | Compound | IC50 [nM]
1 | CCCOc1ccc(N2CC(c3ccc(CC(C)NC(C)=O)cc3)C2)cc1 (stereo not drawn) [Example 1.01, N-(1-(4-(1-(4-Propoxyphenyl)azetidin-3-yl)phenyl)propan-2-yl)acetamide] | 510
2 | CC(=O)NC(C)Cc1ccc(C2CN(c3ccc(OC4CCC4)cc3)C2)cc1 (stereo not drawn) [Example 1.02] | 260
3 | CC(=O)NC(C)Cc1ccc(C2CN(c3ccc(OC4CC4)cc3)C2)cc1 (stereo not drawn) [Example 1.03] | 340
4 | CC(=O)NC(C)Cc1ccc(C2CN(c3ccc(OCC4CC4)cc3)C2)cc1 (stereo not drawn) [Example 1.04] | 630
5 | CCCOc1ccc(N2CC(c3ccc(CC(C)NC(C)=O)cc3)C2)cn1 (stereo not drawn) [Example 1.05] | 900
6 | CC(=O)NC(C)Cc1ccc(C2CN(c3cnc(OC4CCC4)nc3)C2)cc1 (stereo not drawn) [Example 1.06] | 3810
7 | CC(=O)NC(C)Cc1ccc(C2CN(c3cnc(NC4CCC4)nc3)C2)cc1 (stereo not drawn) [Example 1.07] | 5630
8 | CCOc1ccc(N2CC(c3ccc(CC(C)NC(C)=O)cc3)C2)cc1 (stereo not drawn) [Example 1.08] | 650
9 | CC(=O)NC(C)Cc1ccc(C2CN(c3ccc(C(C)(C)C)cc3)C2)cc1 (stereo not drawn) [Example 1.09] | 2730
10 | CC(=O)NC(C)Cc1ccc(C2CN(c3ccc4ncccc4c3)C2)cc1 (stereo not drawn) [Example 1.10] | 8100
11 | CCCOc1ccc(N2CC(c3ccc(CC(C)NC(C)=O)cc3)C2)c(OC)c1 (stereo not drawn) [Example 1.11] | 600
12 | CCCOc1cc(N2CC(c3ccc(CC(C)NC(C)=O)cc3)C2)ccn1 (stereo not drawn) [Example 1.12] | 610
13 | CC(=O)NC(C)Cc1ccc(C2CN(c3ccc4c(c3)OCCO4)C2)cc1 (stereo not drawn) [Example 1.13] | 950
14 | CC(=O)NC(C)CCc1ccc(C2CN(c3ccc4c(c3)OCCO4)C2)cc1 (stereo not drawn) [Example 1.14] | 670
15 | CC(=O)NC(C)CCc1ccc(C2CN(c3ccc(OC4CC4)cc3)C2)cc1 (stereo not drawn) [Example 1.15] | 480
16 | CCOc1ccc(N2CC(c3ccc(CCC(C)NC(C)=O)cc3)C2)cc1 (stereo not drawn) [Example 1.16] | 410
17 | CC(=O)NC(C)CCc1ccc(C2CN(c3ccc(OCC4CC4)cc3)C2)cc1 (stereo not drawn) [Example 1.17] | 190
18 | CC(=O)NC(C)CCc1ccc(C2CN(c3cccc(OC(C)C)c3)C2)cc1 (stereo not drawn) [Example 1.18] | 3180
19 | CCOc1ccc(N2CC(c3ccc(C(C)NC(C)=O)cc3)C2)cc1 (stereo not drawn) [Example 1.19] | 1130

Row | Compound | IC50 [nM]
20 | CC(=O)NC(C)c1ccc(C2CN(c3ccc4c(c3)OCCO4)C2)cc1 (stereo not drawn) [Example 1.20] | 490
21 | CC(=O)NC(C)c1ccc(C2CN(c3ccc(OC4CCCC4)cc3)C2)cc1 (stereo not drawn) [Example 1.21] | 340
22 | CCC(C)Nc1ncc(N2CC(c3ccc(C(C)NC(C)=O)cc3)C2)cn1 (stereo not drawn) [Example 1.22] | 2080
23 | CC(=O)N[C@@H](C)c1ccc(C2CN(c3ccc(OCC4CC4)cc3)C2)cc1 [Example 1.23] | 380
24 | CC(=O)N[C@@H](C)c1ccc(C2CN(c3ccc(OC4CCC4)cc3)C2)cc1 [Example 1.24] | 1630
25 | CC(=O)N[C@@H](C)c1ccc(C2CN(c3ccc(OC4CC4)cc3)C2)cc1 [Example 1.25] | 540
26 | CCCOc1ccc(N2CC(c3ccc([C@H](C)NC(C)=O)cc3)C2)cc1 [Example 1.26] | 510
27 | CC(=O)N[C@@H](C)c1ccc(C2CN(c3ccc4c(c3)OCCO4)C2)cc1 [Example 1.27] | 170
28 | CCOc1cccc(N2CC(c3ccc([C@H](C)NC(C)=O)cc3)C2)c1 [Example 1.28] | 680
29 | CC(=O)N[C@@H](C)c1ccc(C2CN(c3ccc4c(c3)OCCCO4)C2)cc1 [Example 1.29] | 780
30 | CC(=O)NC(C)Cc1ccc(C2CN(c3ncc(OCC4CC4(F)F)cc3F)C2)cc1 (stereo not drawn) [Example 1.30] | 740
31 | CC(=O)N[C@@H](C)c1ccc(C2CN(c3ccc(OCC4CC4(F)F)cn3)C2)cc1 (stereo partly drawn) [Example 1.31] | 600
32 | CC(=O)N[C@@H](C)c1ccc(C2CN(c3ccnc(N4CCOCC4)n3)C2)cc1 [Example 1.32] | 9040
33 | CC(=O)N[C@@H](C)c1ccc(C2CN(c3ncc(OCC4CC4(F)F)cn3)C2)cc1 (stereo partly drawn) [Example 1.33] | 180
34 | CC(=O)N[C@@H](C)c1ccc(C2CN(c3ccc(OCCCF)cn3)C2)cc1 [Example 1.34] | 830
35 | CC(=O)N[C@@H](C)c1ccc(C2CN(c3ncc(OCC4CC4(F)F)cc3F)C2)cc1 (stereo partly drawn) [Example 1.35] | 180
36 | CC(=O)NC(C)Cc1ccc(C2CN(c3ncc(Br)cn3)C2)cc1 (stereo not drawn) [Example 2.01, N-(1-(4-(1-(5-bromopyrimidin-2-yl)azetidin-3-yl)phenyl)propan-2-yl)acetamide] | 8560
37 | CCCc1cnc(N2CC(c3ccc(CC(C)NC(C)=O)cc3)C2)nc1 (stereo not drawn) [Example 2.02] | 3790
38 | CC(=O)NC(C)Cc1ccc(C2CN(c3ccc(-c4ccc(Cl)cc4)nn3)C2)cc1 (stereo not drawn) [Example 2.03] | 7020

Row | Compound | IC50 [nM]
39 | CC(=O)NC(C)CCc1ccc(C2CN(c3ncc(C4CC4)cn3)C2)cc1 (stereo not drawn) [Example 2.04] | 2560
40 | CC(=O)NC(C)CCc1ccc(C2CN(c3ncc4nc(-c5ccccc5)oc4n3)C2)cc1 (stereo not drawn) [Example 2.05] | 810
41 | CC(=O)NC(C)CCc1ccc(C2CN(c3cccc(C(F)(F)F)n3)C2)cc1 (stereo not drawn) [Example 2.06] | 1420
42 | CC(=O)N[C@@H](C)c1ccc(C2CN(c3ncc4nc(-c5ccccc5)oc4n3)C2)cc1 [Example 2.07] | 340
43 | COc1ccc(-c2cnc(N3CC(c4ccc([C@H](C)NC(C)=O)cc4)C3)nc2)cc1 [Example 2.08] | 320
44 | CC(=O)N[C@@H](C)c1ccc(C2CN(c3ccc(C(F)(F)F)cn3)C2)cc1 [Example 2.09] | 450
45 | CC(=O)N[C@@H](C)c1ccc(C2CN(c3cccc(C(F)(F)F)n3)C2)cc1 [Example 2.10] | 470
46 | CC(=O)N[C@@H](C)c1ccc(C2CN(c3nnc(-c4ccccc4)s3)C2)cc1 [Example 2.11] | 7760
47 | CC(=O)N[C@@H](C)c1ccc(C2CN(c3ncc(C4CC4)cn3)C2)cc1 [Example 2.12] | 420
48 | CC(=O)N[C@@H](C)c1ccc(C2CN(c3ncc4nc(-c5ccsc5)oc4n3)C2)cc1 [Example 2.13] | 690
49 | CC(=O)N[C@@H](C)c1ccc(C2CN(c3ncc(C(F)(F)F)cn3)C2)cc1 [Example 2.15] | 850
50 | Cc1oncc1C(=O)N[C@@H](C)c1ccc(C2CN(c3ccc(OCC4CC4)cc3)C2)cc1 [Example 3.01, (S)—N-(1-(4-(1-(4-(cyclopropylmethoxy)phenyl)azetidin-3-yl)phenyl)ethyl)-5-methylisoxazole-4-carboxamide] | 330
51 | C[C@H](NC(=O)c1cn[nH]c1)c1ccc(C2CN(c3ccc(OCC4CC4)cc3)C2)cc1 [Example 3.02] | 1060
52 | C[C@H](NC(=O)C1CC=CC1)c1ccc(C2CN(c3ccc(OCC4CC4)cc3)C2)cc1 [Example 3.03] | 380
53 | CC(=O)Nc1nc(C)c(C(=O)N[C@@H](C)c2ccc(C3CN(c4ccc(OCC5CC5)cc4)C3)cc2)s1 [Example 3.04] | 250
54 | CC(=O)Nc1cncc(C(=O)NC(C)Cc2ccc(C3CN(c4ccc(OCC5CC5)cc4)C3)cc2)c1 (stereo not drawn) [Example 3.05] | 1730
55 | C=CCC(=O)NC(C)Cc1ccc(C2CN(c3ccc(OCC4CC4)cc3)C2)cc1 (stereo not drawn) [Example 3.06] | 1070
56 | CC(Cc1ccc(C2CN(c3ccc(OCC4CC4)cc3)C2)cc1)NC(=O)C1(C#N)CC1 (stereo not drawn) [Example 3.07] | 2580
57 | CCCC(=O)NC(C)Cc1ccc(C2CN(c3ccc(OCC4CC4)cc3)C2)cc1 (stereo not drawn) [Example 3.08] | 3070

Reference: patent US8623860B2, “Azetidine derivatives, pharmaceutical compositions and uses thereof” (Boehringer Ingelheim International GmbH, priority 2011, dated 2014)
